Earlier results in patent publication US20020032197A1 (priority 1998, published 2002).

Assays:
young healthy adults = details: 5 mg dose
MAO-A [1] = target: T1, MAO-A (Homo sapiens, UniProt P21397)
T1 sequence (P21397 1-527): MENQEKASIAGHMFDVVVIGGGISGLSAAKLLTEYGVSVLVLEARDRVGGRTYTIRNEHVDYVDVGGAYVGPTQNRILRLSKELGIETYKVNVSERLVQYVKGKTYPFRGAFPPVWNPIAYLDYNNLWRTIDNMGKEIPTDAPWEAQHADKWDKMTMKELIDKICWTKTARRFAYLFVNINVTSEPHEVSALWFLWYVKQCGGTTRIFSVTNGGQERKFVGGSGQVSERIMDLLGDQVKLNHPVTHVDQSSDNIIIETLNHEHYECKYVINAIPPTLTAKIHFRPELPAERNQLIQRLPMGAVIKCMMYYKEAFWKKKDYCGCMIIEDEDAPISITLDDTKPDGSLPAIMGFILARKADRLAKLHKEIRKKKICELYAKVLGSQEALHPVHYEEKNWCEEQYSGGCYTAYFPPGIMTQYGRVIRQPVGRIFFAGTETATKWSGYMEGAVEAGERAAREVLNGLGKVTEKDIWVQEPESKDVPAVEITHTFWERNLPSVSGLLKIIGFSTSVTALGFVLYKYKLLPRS

[2] = test system: healthy volunteers exposed to an acute nociceptive stimulus; details: single oral dosing, 10 healthy volunteers
MAO-A [3] = target: T1, MAO-A; remark: listed apart in the source
MAO-A [4] = target: T1, MAO-A; details: ex vivo
[5] = test system: sleep of healthy volunteers
monoamine metabolism = details: humans
adrenergic receptors = details: in vitro
opioid receptors = details: in vitro
benzodiazepine receptors = details: in vitro
dopaminergic receptors = details: in vitro
[6] = doses as high as 600 mg daily
women with PMS = details: in vivo
individuals with RSBD = details: in vivo
[7] = fluoxetine, bupropion and placebo compared

## COc1ccc2[nH]cc(CCNC(C)=O)c2c1 [Melatonin]
Young healthy adults
  sleep propensity and duration of sleep: increased sleep propensity and the duration of sleep

## NNCCc1ccccc1 [phenelzine]
PTSD patients; Frank et al.
  reduction of PTSD symptoms versus placebo: superior to placebo
PTSD patients; open trial (Davidson et al.)
  PTSD patients helped: 8 of 11
PTSD patients; open trial, 5 patients, after failing antipsychotics, tricyclics and psychotherapy
  response of patients with traumatic war neuroses: responded positively
PTSD patients; treated openly for 4 to 18 weeks (Lerer et al.)
  clinical improvement in PTSD patients: only modest clinical improvement

## CC(NC(C)(C)C)C(=O)c1cccc(Cl)c1 (stereo not shown) [bupropion]
Women with PMDD; [7]
  efficacy and patient satisfaction in women with PMDD: some improvement

## O=C(NCC[N+]1([O-])CCOCC1)c1ccc(Cl)cc1 [moclobemide-N-oxide, p-chloro-N-(2-morpholinoethyl)-benzamide-N′-oxide]
MAO-A [1]
  MAO-A inhibitory activity: MAO-A inhibitory activity

## CNCCCN1c2ccccc2CCc2ccccc21 [desipramine]
[2]
  antinociceptive effect: antinociceptive effect

## O=C(NCCN1CCOCC1)c1ccc(Cl)cc1 [moclobemide, p-chloro-N-(2-morpholinoethyl)-benzamide]
MAO-A [3]
  in vitro binding to MAO-A: weak
After multiple administrations
  bioavailability: approx. 85%
In vivo
  number of different metabolites: at least 19
Patients with hepatic dysfunction
  elimination: impaired
single-dose oral administration
  absorption: almost completely absorbed
[2]
  antinociceptive effect: antinociceptive effect
MAO-A [4]
  time to recovery of enzyme activity (reversible binding): ≤ 16 h
[5]
  effects on sleep in comparison to other MAO inhibitors: weak
Monoamine metabolism
  plasma levels of homovanillic acid, 3,4-dihydroxyphenylacetic acid, 3-methoxy-4-hydroxyphenylglycol and 5-hydroxyindoleacetic acid: reductions
Adrenergic receptors
  affinity for adrenergic receptors: no appreciable affinity
Opioid receptors
  affinity for opioid receptors: no appreciable affinity
Benzodiazepine receptors
  affinity for benzodiazepine receptors: no appreciable affinity
Dopaminergic receptors
  affinity for dopaminergic receptors: no appreciable affinity
[6]
  tolerability: well-tolerated

## CNCCC(Oc1ccc(C(F)(F)F)cc1)c1ccccc1 (stereo not shown) [fluoxetine]
Women with PMS
  treatment of a range of symptoms in women with PMS: effective and well-tolerated
Women with PMDD; [7]
  efficacy and patient satisfaction in women with PMDD: greater
  tolerability in women with PMDD: well tolerated

## COCCCC/C(=N\OCCN)c1ccc(C(F)(F)F)cc1 [fluvoxamine]
[2]
  antinociceptive effect: antinociceptive effect

## O=C1CN=C(c2ccccc2Cl)c2cc([N+](=O)[O-])ccc2N1 [clonazepam]
Individuals with RSBD
  cases of RSBD in which effective: approximately 90%

## CN[C@H]1CC[C@@H](c2ccc(Cl)c(Cl)c2)c2ccccc21 [sertraline]
Women with PMDD; versus placebo
  treatment of PMDD, symptomatic improvement and change in reported functional impairment: significantly better than placebo
